13 compounds from patent US20230041743A1, “1,8-NAPHTHYRIDIN-2-ONE COMPOUNDS FOR THE TREATMENT OF AUTOIMMUNE DISEASE” (Hoffmann-La Roche Inc., priority 2019, published 2023) can be followed below.

The target in the assay is T1, human TLR9 (Homo sapiens, UniProt Q9NR96).
T1 construct: host or cells: HEK293 (HEK-Blue hTLR9)
T1 sequence (Q9NR96 26-1032): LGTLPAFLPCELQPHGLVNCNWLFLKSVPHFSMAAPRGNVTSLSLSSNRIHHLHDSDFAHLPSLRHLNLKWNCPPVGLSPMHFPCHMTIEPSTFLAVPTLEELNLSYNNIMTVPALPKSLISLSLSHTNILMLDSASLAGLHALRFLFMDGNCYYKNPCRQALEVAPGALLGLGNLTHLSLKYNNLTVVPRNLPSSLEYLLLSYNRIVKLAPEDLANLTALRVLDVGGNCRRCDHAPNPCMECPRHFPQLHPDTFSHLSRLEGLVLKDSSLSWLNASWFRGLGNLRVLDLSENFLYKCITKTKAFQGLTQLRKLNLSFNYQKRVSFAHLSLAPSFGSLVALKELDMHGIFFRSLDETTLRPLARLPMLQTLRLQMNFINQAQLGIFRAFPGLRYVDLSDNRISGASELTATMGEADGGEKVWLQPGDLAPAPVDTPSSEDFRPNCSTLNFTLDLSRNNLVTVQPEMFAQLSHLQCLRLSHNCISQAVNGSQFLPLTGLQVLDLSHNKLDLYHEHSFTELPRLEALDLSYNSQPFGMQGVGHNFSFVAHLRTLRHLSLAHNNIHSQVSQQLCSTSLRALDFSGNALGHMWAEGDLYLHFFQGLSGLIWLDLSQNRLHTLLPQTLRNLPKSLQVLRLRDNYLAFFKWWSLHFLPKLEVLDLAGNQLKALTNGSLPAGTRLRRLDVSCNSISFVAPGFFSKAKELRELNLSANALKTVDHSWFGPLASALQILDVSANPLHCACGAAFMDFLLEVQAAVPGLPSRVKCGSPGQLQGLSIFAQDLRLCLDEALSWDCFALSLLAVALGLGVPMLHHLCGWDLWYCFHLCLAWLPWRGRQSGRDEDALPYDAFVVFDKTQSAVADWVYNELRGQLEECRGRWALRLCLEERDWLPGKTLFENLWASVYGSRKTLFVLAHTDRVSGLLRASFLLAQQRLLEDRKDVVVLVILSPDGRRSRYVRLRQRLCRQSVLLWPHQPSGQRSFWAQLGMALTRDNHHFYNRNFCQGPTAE
Briefly: HEK293-Blue-hTLR-9 cells assay (SEAP reporter, ODN2006 stimulation). The assay is classed as cell-based. The settings on record: HEK293-Blue-hTLR9 cells, ODN2006 ligand, 20 hrs incubation; read-out: HEK/hTLR9 IC50. An excerpt: HEK293-Blue-hTLR-9 Cells Assay:
A stable HEK293-Blue-hTLR-9 cell line was purchased from InvivoGen (Cat. #: hkb-htlr9, San Diego, Calif., USA). These cells were originally designed for studying the stimulation of human TLR9 by monitoring the activation of NF-κB. A SEAP (secreted embryonic alkaline phosphatase) reporter gene was placed under the control of the IFN-β minimal promoter fused to five NF-κB and AP-1-binding sites. The SEAP was induced by activating NF-κB and AP-1 via stimulating HEK-Blue hTLR9 cells with TLR9 ligands. Therefore the reporter expression was declined by TLR9 antagonist under the stimulation of a ligand, such as ODN2006 (Cat. #: tlrl-2006-1, Invivogen, San Diego, Calif., USA), for incubation of 20 hrs. The cell culture supernatant SEAP reporter activity was determined using QUANTI-Blue™ kit (Cat. #: rep-qb1, Invivogen, San Diego, Calif., USA) at a wavelength of 640 nm, a detection medium that turns purple or blue in the presence of alkaline phosphatase.
HEK293-Blue-hTLR9 cells were incubated at a density of 250,000˜450,000 cells/mL in a volume of 170 μL in a 96-well plate in Dulbecco's Modified Eagle's medium (DMEM) containing 4.5 g/L glucose, 50 U/mL penicillin, […], 2 mM L-glutamine, 10% (v/v) heat-inactivated fetal bovine serum with addition of 20 μL test compound in a serial dilution in the presence of final DMSO at 1% and 10 μL of 20 uM ODN2006 in above DMEM, perform incubation under 37° C. in a CO2 incubator for 20 hrs. Then 20 μL of the supernatant from each well was incubated with 180 μL Quanti-blue substrate solution at 37° C. for 2 h and the absorbance was read at 620˜655 nm using a spectrophotometer. The signaling pathway that TLR9 activation leads to downstream NF-κB activation has been widely accepted, and therefore similar reporter assay was modified for evaluating TLR9 antagonist.
In the case of `C[C@@H]1CN(c2cc(=O)n(C)c3ncccc23)C[C@@H]2c3ccc(N4C[C@@H]5C[C@H]4CN5)cc3CN12` [Example 19, 4-[(4R,10bS)-8-[(1S,4S)-2,5-diazabicyclo[2.2.1]heptan-2-yl]-4-methyl-3,4,6,10b-tetrahydro-1H-pyrazino[2,1-a]isoindol-2-yl]-1-methyl-1,8-naphthyridin-2-one], the IC50 is 116 nM.
Under `C[C@@H]1CN(c2cc(=O)n(C)c3ncccc23)C[C@@H]2c3ccc(N4C[C@H]5C[C@@H]4CN5)cc3CN12` [Example 20, 4-[(4R,10bS)-8-[(1R,4R)-2,5-diazabicyclo[2.2.1]heptan-2-yl]-4-methyl-3,4,6,10b-tetrahydro-1H-pyrazino[2,1-a]isoindol-2-yl]-1-methyl-1,8-naphthyridin-2-one] stands 96 nM; under `C[C@@H]1CN(c2cc(=O)n(C)c3ncccc23)C[C@@H]2c3ccc(N4CC5CCC(C4)N5)cc3CN12` [Example 21, 4-[(4R,10bS)-8-(3,8-diazabicyclo[3.2.1]octan-3-yl)-4-methyl-3,4,6,10b-tetrahydro-1H-pyrazino[2,1-a]isoindol-2-yl]-1-methyl-1,8-naphthyridin-2-one], 138 nM.
Under `C[C@@H]1CN(c2cc(=O)n(C)c3ncccc23)C[C@@H]2c3ccc(N4CCOC[C@H](N)C4)cc3CN12` [Example 22, 4-[(4R,10bS)-8-[(6R)-6-amino-1,4-oxazepan-4-yl]-4-methyl-3,4,6,10b-tetrahydro-1H-pyrazino[2,1-a]isoindol-2-yl]-1-methyl-1,8-naphthyridin-2-one] stands 113 nM; under `C[C@@H]1CN(c2cc(=O)n(C)c3ncccc23)C[C@@H]2c3ccc(OCCN(C)C)cc3CN12` [Example 23, 4-[(4R,10bS)-8-[2-(dimethylamino)ethoxy]-4-methyl-3,4,6,10b-tetrahydro-1H-pyrazino[2,1-a]isoindol-2-yl]-1-methyl-1,8-naphthyridin-2-one], 213 nM.
For `C[C@@H]1CN(c2cc(=O)n(C)c3ncccc23)C[C@@H]2c3ccc(C4CCNCC4)cc3CN12` [Example 24, 4-[(4R,10bS)-4-methyl-8-(4-piperidyl)-3,4,6,10b-tetrahydro-1H-pyrazino[2,1-a]isoindol-2-yl]-1-methyl-1,8-naphthyridin-2-one], the IC50 came out at 156 nM.
Under `C[C@@H]1CN(c2cc(=O)n(C)c3ncccc23)C[C@@H]2c3ccc(C4CCCNC4)cc3CN12` (stereo partly drawn) [Example 25, 4-[(4R,10bS)-4-methyl-8-(3-piperidyl)-3,4,6,10b-tetrahydro-1H-pyrazino[2,1-a]isoindol-2-yl]-1-methyl-1,8-naphthyridin-2-one] stands 124 nM.
For `C[C@@H]1CN(c2cc(=O)n(C)c3ncccc23)C[C@@H]2c3ccc(C4CCNC4)cc3CN12` (stereo partly drawn) [Example 26, 4-[(4R,10bS)-4-methyl-8-pyrrolidin-3-yl-3,4,6,10b-tetrahydro-1H-pyrazino[2,1-a]isoindol-2-yl]-1-methyl-1,8-naphthyridin-2-one], the IC50 is 132 nM.
Under `C[C@@H]1CN(c2cc(=O)n(C)c3ncccc23)C[C@@H]2c3ccc([C@H]4CC[C@H](N5CCOCC5)CC4)cc3CN12` [Example 27A, 4-[(4R,10bS)-4-methyl-8-(trans-4-morpholinocyclohexyl)-3,4,6,10b-tetrahydro-1H-pyrazino[2,1-a]isoindol-2-yl]-1-methyl-1,8-naphthyridin-2-one] stands 99 nM; under `C[C@@H]1CN(c2cc(=O)n(C)c3ncccc23)C[C@@H]2c3ccc([C@H]4CC[C@@H](N5CCOCC5)CC4)cc3CN12` [Example 27B, 4-[(4R,10bS)-4-methyl-8-(cis-4-morpholinocyclohexyl)-3,4,6,10b-tetrahydro-1H-pyrazino[2,1-a]isoindol-2-yl]-1-methyl-1,8-naphthyridin-2-one], 105 nM.
With `C[C@@H]1CN(c2cc(=O)n(C)c3ncccc23)C[C@@H]2c3ccc([C@H]4C[C@H]5COC[C@@H](C4)N5)cc3CN12` [Example 28A, 4-[(4R,10bS)-4-methyl-8-(endo-3-oxa-9-azabicyclo[3.3.1]nonan-7-yl)-3,4,6,10b-tetrahydro-1H-pyrazino[2,1-a]isoindol-2-yl]-1-methyl-1,8-naphthyridin-2-one] the figure was 153 nM; with `C[C@@H]1CN(c2cc(=O)n(C)c3ncccc23)C[C@@H]2c3ccc([C@@H]4C[C@H]5COC[C@@H](C4)N5)cc3CN12` [Example 28B, 4-[(4R,10bS)-4-methyl-8-(exo-3-oxa-9-azabicyclo[3.3.1]nonan-7-yl)-3,4,6,10b-tetrahydro-1H-pyrazino[2,1-a]isoindol-2-yl]-1-methyl-1,8-naphthyridin-2-one], 255 nM.
With `CCn1c(=O)cc(N2C[C@@H](C)N3Cc4cc(N5C[C@@H](N)[C@H](OC)C5)ccc4[C@H]3C2)c2cccnc21` [Example 29, 4-[(4R,10bS)-8-[(3R,4R)-3-amino-4-methoxy-pyrrolidin-1-yl]-4-methyl-3,4,6,10b-tetrahydro-1H-pyrazino[2,1-a]isoindol-2-yl]-1-ethyl-1,8-naphthyridin-2-one] the figure was 340 nM.
